Data taken from US20250115612A1, “CERTAIN 2,5-DIAZABICYCLO[4.2.0]OCTANES AND OCTAHYDROFURO[3,4-B]PYRAZINES AS GLP-1 RECEPTOR MODULATORS” (ASTRAZENECA AB, priority 2021, published 2025).

Legend:
[1] = molecular target: T1, GLP-1R (Homo sapiens, UniProt P43220); test: EndoC cAMP accumulation assay (HTRF, EndoC-βH1 cells); assay type: cell-based; settings: EndoC-βH1 human pancreatic β cell line
T1 construct: host or cells: EndoC-βH1
From the text: EndoC cAMP Accumulation Assay
A HTRF cAMP assay (cAMP Gs dynamic kit; CisoBio Cat #62AM4PEJ) was used to identify agonists of GLP-1R in a pancreatic insulinoma cell line (EndoC-PH1). […] EndoC-βH1 cells have detectable GLP-1R messenger ribonucleic acid (mRNA) as detected by quantitative polymerase chain reaction (qPCR). […] The EndoC-βH1 cell line is a valid model of human beta cells and applicable for screenings to identify novel drug target candidates (Mol. Metab., 2018, 8, 144-157). CisBio HTRF cAMP kits are based on a competitive immunoassay using cryptate-labelled anti-cAMP antibody and d2-labeled cAMP. The detection kit is intended for the direct quantitative determination of cAMP. The specific signal (i.e. energy transfer) is inversely proportional to the concentration of cAMP in the standard or sample. Test compounds (10 mM in DMSO) were diluted into assay buffer (HBSS (Sigma #H8264) supplemented with 25 mM HEPES (Gibco #15630, pH 7.4), 0.1% BSA (Sigma #A3059) and 0.5 mM IBMX (Sigma #I7018) included fresh on the day of the assay) into 96 well U-bottom plates (Greiner #650201). Diluted compounds were transferred to ECHO source polypropelene plates (Labcyte #P-05525) and dose response curves were dispensed acoustically using ECHO 550 into black shallow-well u-bottom 384-well HTRF Assay Plates (Corning 4514).
Cryovials of EndoC-H1 (supplied at 1×10e^7 cells/vial) were used directly for screening. The cryovials and were removed from N2(l) and thawed rapidly in a 37° C. water bath. The cells were resuspended in assay buffer and centrifuged at 300 g for 5 min. Cells were resuspended in assay buffer at the appropriate concentration, typically at 12e5 cells per mL (3000 cells per well, dependent on cell batch) and 2.5 μL diluted cells were added to all wells of destination plate by Multidrop combi reagent dispenser (Thermofisher). The plates were incubated at rt for 30 min. The assay was stopped by adding 2.5 μL anti-cAMP cryptate solution to all wells and 2.5 μL cAMP-d2 solution (both diluted 1:20 in lysis buffer) to columns 1-22 by Combi drop. A volume of 2.5 μL cAMP-d2 solution was added to wells E23 to P24 and 2.5 μL lysis buffer added to wells A23 to D24 by multichannel pipette. The plates were incubated at rt for 1 h and read on an Envision plate reader using excitation wavelength of 320 nm and emission of 590 nm and 660 nm.
Raw data from Envision is converted to % DeltaF according to the manufacturer's instructions. Dose response curves are analysed via 4-Parameter Logistical Analysis and assay plate Z′ values obtained. Samples are graphed as percentage (%) activation plots compared to GIP (1-42, Bachem H-5645) with assay window defined by negative control as basal cell cAMP levels and positive control are defined by maximum GIP (82.5 nM) signal. GLP-1 (7-36 amide, Bachem H-6795) dose response curve was included on all plates.

[2] = molecular target: T2, human GLP-1R receptor (Homo sapiens, UniProt P43220, L260F); test: CHOK1 GLP-1R cAMP assay (HTRF); assay type: cell-based; settings: CHO-K1 cells stably expressing human GLP-1R
T2 construct: expressed in transfected cells; host or cells: CHO-K1 (ATCC CCL-61)
T2 sequence (P43220 24-463 L260F): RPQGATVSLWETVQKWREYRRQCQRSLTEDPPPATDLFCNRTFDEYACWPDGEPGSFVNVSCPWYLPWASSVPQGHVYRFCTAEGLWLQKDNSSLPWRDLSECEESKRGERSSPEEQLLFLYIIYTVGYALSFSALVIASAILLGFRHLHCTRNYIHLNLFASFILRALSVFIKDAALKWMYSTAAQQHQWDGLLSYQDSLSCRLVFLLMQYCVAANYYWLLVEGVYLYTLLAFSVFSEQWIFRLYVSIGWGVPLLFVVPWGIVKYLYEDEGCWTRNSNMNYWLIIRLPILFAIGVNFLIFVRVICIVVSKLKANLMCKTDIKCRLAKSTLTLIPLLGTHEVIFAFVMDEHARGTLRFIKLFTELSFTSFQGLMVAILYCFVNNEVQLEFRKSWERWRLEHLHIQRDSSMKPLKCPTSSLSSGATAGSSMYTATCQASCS
Method: A cell line stably expressing the human GLP-1R receptor (NM_002062.5, including the naturally-occurring variant Leu260Phe) in a CHO-K1 (ATCC® CCL-61™) was used for assay.
GLP-1 receptor mediated agonist activity was determined in a cell-based assay measuring cyclic adenosine monophosphate (cAMP) levels in cells using Homogeneous Time-Resolved Fluorescence (HTRF) cAMP detection kit (CisBio catalog #62AM4PEC, cAMP Gs Dynamic range kit). The cAMP detection method is based on a competitive immunoassay, in which cAMP produced by the cells and cAMP labeled with the dye d2 compete for binding to a Europium-Cryptate-labeled anti-cAMP antibody. The specific HTRF signal is inversely proportional to the concentration of cAMP.
Compounds were added to individual well in 384 well-assay plates (Greiner #784076) using an Echo (LabCyte) dispenser from 10 mM stocks. Varying concentration of compounds were added to wells, and DMSO was used to normalize each well to a volume of 100 nL. A dose response curve of GLP-1(7-36)NH2 (Bachem H-6795) was included in each run. 5 μL of cAMP concentration response standards are applied in specified wells in the assay plates. Cryo-preserved cells are thawed and resuspended in assay buffer pre-heated to 37° C. (20 mM 2-[4-(2-hydroxyethyl)piperazin-1-yl]ethanesulfonic acid (HEPES) pH 7.4, lx Hank's Balanced Salt Solution (HBSS, Life Technologies #14065) supplemented with 0.1% (w/v) bovine serum albumin (Sigma, A-7030)). Cells were centrifuged at 250*g for 5 min at rt, and resuspended in room tempered assay buffer to a final density of 0.16*10^6 cell/mL, to deliver 800 cells/well. 5 μL of assay buffer with 1 mM 3-isobutyl-1-methylxanthin (IBMX; Sigma cat I-7018) was dispensed per well in assay plates using a multidrop combi (Thermo Scientific) subsequently 5 μL of cell suspension was distributed to relevant wells in the assay using a multidrop dispenser. Assay plates were incubated 20 min at rt.
Detection reagents, Europium-Cryptate-labeled anti-cAMP antibody and cAMP labeled with the dye d2, are diluted in lysis buffer, provided by the manufacturer. 5 μL of each detection reagent is supplemented to each assay well using a multidrop dispenser. Assay plates are incubated in the dark for at least one h. The HTRF signal is measured using the HTRF module (excitation: 337 nm, emission A: 665 nm and emission B: 620 nm) in Pherastar FSX (BMG Labtech).
Raw data were converted to pM cAMP using the cAMP standard curve included in each run. Converted data were further analyzed in Genedata Screener (Genedata) and EC50 determinations were made from agonist dose-response curves analyzed with a curve fitting program using a 4-parameter logistic dose response equation (Equation y=A+((B−A)/1+((C/x)^D))) where A is no stimulation, B is full stimulation, C is the EC50 and D is the Hill slope). The percent effect was determined relative to a saturating concentration of a full GLP-1R agonist (GLP-1(7-36)NH2 has 100% effect in this assay setup).

T1 sequence (P43220 24-463): as the sequence (P43220 24-463 L260F) above, with F237L counted along it

Compound | EC50 [1] [nM] | EC50 [2] [nM]
Cc1nccn1CCn1c(CN2CCN(c3cccc(OCc4ccc(Cl)cc4F)n3)[C@@H]3COC[C@@H]32)nc2ccc(C(=O)O)cc21 (single isomer, unassigned) [Example 25a] | 170 | 110
N#Cc1ccc(COc2cccc(N3CCN(Cc4nc5cc(Cl)c(C(=O)O)cc5n4C[C@@H]4CCO4)[C@H]4CC[C@H]43)n2)c(F)c1 (single isomer, unassigned) [Example 7c] | – | 250
Cn1ccc(Cn2c(CN3CCN(c4cccc(OCc5ccc(C#N)cc5F)n4)[C@@H]4CC[C@@H]43)nc3ccc(C(=O)O)cc32)n1 (racemic) [Example 1, rac-2-(((1R,6S)-5-(6-((4-Cyano-2-fluorobenzyl)oxy)pyridin-2-yl)-2,5-diazabicyclo[4.2.0]octan-2-yl)methyl)-1-((1-methyl-1H-pyrazol-3-yl)methyl)-1H-benzo[d]imidazole-6-carboxylic acid] | 280 | 130
Cc1nccn1CCn1c(CN2CCN(c3cccc(OCc4ccc(Cl)cc4F)n3)[C@@H]3COC[C@@H]32)nc2c(Cl)cc(C(=O)O)cc21 (single isomer, unassigned) [Example 24] | 340 | 250
N#Cc1ccc(COc2cccc(N3CCN(Cc4nc5ccc(C(=O)O)cc5n4C[C@@H]4CCO4)[C@H]4CC[C@H]43)n2)c(F)c1 (single isomer, unassigned) [Example 2b, 2-(((1R*,6S*)-5-(6-((4-Cyano-2-fluorobenzyl)oxy)pyridin-2-yl)-2,5-diazabicyclo[4.2.0]octan-2-yl)methyl)-1-(((S)-oxetan-2-yl)methyl)-1H-benzo[d]imidazole-6-carboxylic acid] | 32 | 17
COc1cc(C(=O)O)cc2c1nc(CN1CCN(c3cccc(OCc4ccc(Cl)cc4F)n3)[C@@H]3COC[C@@H]31)n2C[C@@H]1CCO1 (single isomer, unassigned) [Example 16b, 2-(((4aR*,7aS*)-4-(6-((4-Chloro-2-fluorobenzyl)oxy)pyridin-2-yl)hexahydrofuro[3,4-b]pyrazin-1(2H)-yl)methyl)-4-methoxy-1-(((S)-oxetan-2-yl)methyl)-1H-benzo[d]imidazole-6-carboxylic acid] | 120 | 64
Cc1nccn1CCn1c(CN2CCN(c3cccc(OCc4ccc(Cl)cc4F)n3)[C@@H]3COC[C@@H]32)nc2ccc(C(=O)O)cc21 (single isomer, unassigned) [Example 25b] | 1100 | 250
N#Cc1ccc(COc2cccc(N3CCN(Cc4nc5ccc(C(=O)O)cc5n4C[C@@H]4CCO4)[C@H]4CC[C@H]43)n2)c(F)c1 (single isomer, unassigned) [Example 2a, 2-(((1R*,6S*)-5-(6-((4-Cyano-2-fluorobenzyl)oxy)pyridin-2-yl)-2,5-diazabicyclo[4.2.0]octan-2-yl)methyl)-1-(((S)-oxetan-2-yl)methyl)-1H-benzo[d]imidazole-6-carboxylic acid] | 4.1 | 1.2
N#Cc1ccc(COc2cccc(N3CCN(Cc4nc5ccc(C(=O)O)c(Cl)c5n4C[C@@H]4CCO4)[C@H]4CC[C@H]43)n2)c(F)c1 (single isomer, unassigned) [Example 8a] | 28 | 6.1
CCCCOCCn1c(CN2CCN(c3cccc(OCc4ccc(C#N)cc4F)n3)[C@@H]3CC[C@@H]32)nc2ccc(C(=O)O)cc21 (racemic) [Example 11, rac-1-(2-Butoxyethyl)-2-(((1R,6S)-5-(6-((4-cyano-2-fluorobenzyl)oxy)pyridin-2-yl)-2,5-diazabicyclo[4.2.0]octan-2-yl)methyl)-1H-benzo[d]imidazole-6-carboxylic acid] | – | 150
CC(C)(C)OCCn1c(CN2CCN(c3cccc(OCc4ccc(C#N)cc4F)n3)[C@@H]3CC[C@@H]32)nc2ccc(C(=O)O)cc21 (racemic) [Example 10, rac-1-(2-(tert-Butoxy)ethyl)-2-(((1R,6S)-5-(6-((4-cyano-2-fluorobenzyl)oxy)pyridin-2-yl)-2,5-diazabicyclo[4.2.0]octan-2-yl)methyl)-1H-benzo[d]imidazole-6-carboxylic acid] | – | 370

More lines, in order of falling EC50 [2], values ahead:

EC50 [1] [nM] | EC50 [2] [nM] | Compound
2800 | 400 | Cc1ccnc(Cn2c(CN3CCN(c4cccc(OCc5ccc(C#N)cc5F)n4)[C@@H]4CC[C@@H]43)nc3ccc(C(=O)O)cc32)c1 (racemic) [Example 14, rac-2-(((1R,6S)-5-(6-((4-Cyano-2-fluorobenzyl)oxy)pyridin-2-yl)-2,5-diazabicyclo[4.2.0]octan-2-yl)methyl)-1-((4-methylpyridin-2-yl)methyl)-1H-benzo[d]imidazole-6-carboxylic acid]
89 | 110 | O=C(O)c1cc(F)c2nc(CN3CCN(c4cccc(OCc5ccc(Cl)cc5F)n4)[C@@H]4COC[C@@H]43)n(C[C@H]3CCOC3)c2c1 (single isomer, unassigned) [Example 18a]
40 | 90 | N#Cc1ccc(COc2cccc(N3CCN(Cc4nc5cc(Cl)c(C(=O)O)cc5n4C[C@@H]4CCO4)[C@H]4CC[C@H]43)n2)c(F)c1 (single isomer, unassigned) [Example 7b]
13 | 23 | N#Cc1ccc(COc2cccc(N3CCN(Cc4nc5c(F)cc(C(=O)O)cc5n4C[C@@H]4CCO4)[C@H]4CC[C@@H]43)n2)c(F)c1 (single isomer, unassigned) [Example 3a, 2-(((1R*,6R*)-5-(6-((4-Cyano-2-fluorobenzyl)oxy)pyridin-2-yl)-2,5-diazabicyclo[4.2.0]octan-2-yl)methyl)-4-fluoro-1-(((S)-oxetan-2-yl)methyl)-1H-benzo[d]imidazole-6-carboxylic acid]
– | 2.2 | CCn1cncc1Cn1c(CN2CCN(c3cccc(OCc4ccc(Cl)cc4F)n3)[C@H]3CC[C@@H]32)nc2c(OC)cc(C(=O)O)cc21 (single isomer, unassigned) [Example 12a]
